Marks after values point to notes of the source that are not given here.

The source of these data is patent publication US12258367B2, “Glucoside derivative that acts as SGLT1 inhibitor and application thereof” (MEDSHINE DISCOVERY INC., priority 2019, dated 2025).

Data set [1] addresses T1, Human-SGLT1 (Homo sapiens, UniProt P13866).
T1 sequence (P13866 1-664): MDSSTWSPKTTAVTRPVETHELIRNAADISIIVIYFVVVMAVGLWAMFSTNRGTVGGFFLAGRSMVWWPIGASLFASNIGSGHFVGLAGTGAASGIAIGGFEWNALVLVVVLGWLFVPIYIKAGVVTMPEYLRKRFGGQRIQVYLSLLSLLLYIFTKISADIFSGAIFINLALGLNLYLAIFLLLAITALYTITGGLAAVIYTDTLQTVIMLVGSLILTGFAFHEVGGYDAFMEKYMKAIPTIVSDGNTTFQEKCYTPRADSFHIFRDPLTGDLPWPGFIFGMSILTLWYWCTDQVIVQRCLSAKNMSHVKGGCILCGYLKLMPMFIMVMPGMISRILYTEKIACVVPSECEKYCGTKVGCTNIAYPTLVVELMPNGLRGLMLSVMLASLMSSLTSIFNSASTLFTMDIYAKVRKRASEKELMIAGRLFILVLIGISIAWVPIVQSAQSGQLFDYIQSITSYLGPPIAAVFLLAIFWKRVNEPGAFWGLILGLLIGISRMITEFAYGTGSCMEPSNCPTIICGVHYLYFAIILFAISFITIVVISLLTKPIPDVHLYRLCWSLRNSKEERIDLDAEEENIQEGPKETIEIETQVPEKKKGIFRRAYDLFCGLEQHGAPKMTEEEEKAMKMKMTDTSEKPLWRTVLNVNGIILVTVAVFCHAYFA
Put plainly: SGLT1 glucose transport assay ([14C]-methyl α-D-glucopyranoside uptake). The class given is cell-based. The settings on record: cells stably expressing Human-SGLT1, 37° C. for 2 hours. The procedure: The effect of the compounds on the glucose transport activity of the SGLT1 transporter was detected by measuring the amount of [^14C]-labeled glucose entering cells highly expressing Human-SGLT1.
The cells stably expressing Human-SGLT1 used in the assay were constructed by Shanghai WuXi AppTec. The SGLT1 cells were plated on a Cytostar-T (PerkinElmer) 96-well cell culture plate and cultured at 5% CO2, 37° C. overnight.

Data set [2] has as its target T2, Human-SGLT2 (Homo sapiens, UniProt P31639).
T2 sequence (P31639 1-672): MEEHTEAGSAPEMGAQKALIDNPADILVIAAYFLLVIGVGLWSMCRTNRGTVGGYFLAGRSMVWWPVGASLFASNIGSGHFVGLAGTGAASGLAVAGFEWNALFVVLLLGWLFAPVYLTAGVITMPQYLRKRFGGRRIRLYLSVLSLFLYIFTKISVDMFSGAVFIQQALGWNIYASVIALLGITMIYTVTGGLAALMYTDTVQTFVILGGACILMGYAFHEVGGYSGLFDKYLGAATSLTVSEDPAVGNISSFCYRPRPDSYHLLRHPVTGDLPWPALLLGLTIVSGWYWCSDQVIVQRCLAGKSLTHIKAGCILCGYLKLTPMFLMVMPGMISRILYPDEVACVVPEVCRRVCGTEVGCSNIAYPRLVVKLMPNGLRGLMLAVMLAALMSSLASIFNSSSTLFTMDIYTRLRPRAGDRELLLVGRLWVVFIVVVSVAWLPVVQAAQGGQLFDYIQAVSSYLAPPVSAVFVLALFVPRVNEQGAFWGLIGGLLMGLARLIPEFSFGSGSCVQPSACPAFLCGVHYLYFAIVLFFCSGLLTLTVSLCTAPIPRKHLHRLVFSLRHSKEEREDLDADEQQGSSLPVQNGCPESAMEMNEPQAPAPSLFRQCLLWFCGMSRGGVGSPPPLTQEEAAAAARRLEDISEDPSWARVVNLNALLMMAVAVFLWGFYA
In words: SGLT2 glucose transport assay ([14C]-methyl α-D-glucopyranoside uptake). The class given is cell-based. The conditions noted are these: cells stably expressing Human-SGLT2, 37° C. for 2 hours. On the procedure:
The effect of the compound on the glucose transport activity of the SGLT2 transporter was detected by measuring the amount of [^14C]-labeled glucose entering cells highly expressing Human-SGLT2.
The cells stably expressing Human-SGLT2 used in the assay were constructed by Shanghai WuXi AppTec. The SGLT2 cells were plated on a 96-well cell culture plate (Greiner) and cultured at 5% CO2, 37° C. overnight.

A short description of data set [3]: In vivo DMPK study in rats. The conditions noted are these: male SD rats; for clearance / half-life / Vd: iv, 1 mg/kg intravenously; for clearance: read-out: Cl (clearance rate); for half-life: read-out: T1/2 (half-life) (converted); for Vd: read-out: VdSS (distribution volume). The text has this:
Purpose of the assay: Male SD rats were used as test animals to determine the blood concentration of the compound after a single administration and evaluate the pharmacokinetic behavior.
Procedure of the assay: 4 healthy adult male SD rats were selected, 2 rats in the intravenous injection group, and 2 rats in the oral group. The test compound was mixed with an appropriate amount of vehicle (10% NMP/10% solutol/80% water) for the intravenous injection group, vortexed, and sonicated to prepare a clear solution of 0.5 mg/mL. The clear solution was filtered by a microporous membrane for use. The vehicle for the oral group was 10% NMP/10% solutol/80% water. The test compound was mixed with the vehicle, and then the mixture was vortexed and sonicated to prepare a clear solution of 1 mg/mL. Rats were administered 1 mg/kg intravenously or 10 mg/kg orally, and then whole blood was collected for a certain period. Plasma was prepared. The drug concentration was analyzed by LC-MS/MS method, and the pharmacokinetic parameters were calculated by Phoenix WinNonlin software (Pharsight, USA).

The test system of data set [4] is C57BL/6J male mice. Put plainly: In vivo efficacy study in obese mouse model induced by HFHS diet. Details: species or system C57BL/6J mice. The settings on record: for Blood glucose after 6 hours of fasting / Blood glucose 1 hour after meal: after 3 weeks of administration, HFHS; for Blood glucose after 6 hours of fasting: HFHS + Vehicle 10.5; for Blood glucose 1 hour after meal: HFHS + Vehicle 11.5. An excerpt: 5 week-old C57BL/6J male mice, purchased from Jiangsu GemPharmatech Co., Ltd.
1) After the animals adapted to the environment, they were fed a HFHS diet (Research Diet, HFHS, D12451) for 20 weeks, and then mice weighing more than 40 grams were selected for weight loss assay.
2) Animals whose body weight met the standard were adapted for vehicle administration, and then all mice were divided into 5 groups according to body weight for weight loss assay. The effect of the compound in reducing the body weight of animals was detected.
3) After starting the administration, the level of change in animal weight was monitored every day, and after 3 weeks of administration, the blood glucose levels of mice in each group after 6 hours of fasting and 1 hour after meal were detected, respectively;
4) Data analysis: All values were expressed as average values. Statistical analysis was evaluated using Graphpad Prism 6 one-way analysis of variance and Tukey's multiple comparison test, and a p value of less than 0.05 was considered statistically significant.

For data set [5], the system named is C57BL/6J male mice. In words: In vivo efficacy study in diabetic mouse model induced by STZ combined with high-sugar and high-fat diet. The conditions noted are these: for Glycosylated hemoglobin after 6 hours of fasting / Blood glucose after 6 hours of fasting: HFHS. On the set-up: species or system C57BL/6J mice. The text has this:
7 week-old C57BL/6J male mice, purchased from Jiangsu GemPharmatech Co., Ltd.
1) After the animals adapted to the environment, all mice were divided into two groups according to body weight, fed according to the scheme in Table 8, and injected with vehicle and streptozotocin (STZ) for modeling;
2) According to the random blood glucose test results of the model group, mice with random blood glucose greater than 11 mmol/L were enrolled in the group to continue the administration assay;
3) The mice in the model group that meet the criteria for enrollment were divided into 3 groups, 5 in the normal group, and 10 in each model administration group. The mice were administered according to the administration schedule in Table 9;
4) After starting the administration, the level of change in animal weight was monitored every day, and the blood glucose and glycosylated hemoglobin of the mice in each group after 6 hours of fasting were detected after 4 weeks and 7 weeks of administration, respectively;
5) Data analysis: All values were expressed as average values. Statistical analysis was evaluated using Graphpad Prism 6 one-way analysis of variance and Tukey's multiple comparison test, and a p value of less than 0.05 was considered statistically significant.

In data set [6] the test system is SD rats. In words: In vivo efficacy study of oral glucose tolerance in rats (OGTT). The conditions noted are these: 5 mg/kg single gavage, then 50% glucose 2 g/kg, vehicle control 1063.4. On the procedure:
After the animals were fasted for 6 hours, they were administered WXD003 or vehicle according to Table 6, and then immediately administered 50% glucose solution (2 g/kg, 4 ml/kg).
The time for sugar administration was recorded as 0 point. The blood glucose of the animals was detected at 0 minute before sugar administration, and at 15, 30, 60, 90, 120 minutes after sugar administration, respectively. A curve of glucose tolerance was drawn based on the data of time versus blood glucose, and the area under curve (AUC) was calculated.
All values were expressed as average values. Statistical analysis was evaluated using Graphpad Prism 6 one-way analysis of variance and Tukey's multiple comparison test. A p value of less than 0.05 was considered statistically significant.

Turning to `CS[C@H]1O[C@@H](c2ccc(C)c(Cc3ccc(CCCC(=O)NC(C)(C)C(=O)NCCN(C)C)cc3)c2)[C@H](O)[C@@H](O)[C@@H]1O` [LX2761, reference compound], in data set [1], the midpoint of inhibition, the IC50, lay at 1.1 nM. The IC50 (commonly the concentration that inhibits the measured activity by half) in data set [2] was found to be 1.1 nM. In addition, in data set [3] (rat, plasma), the clearance (usually the volume of plasma or blood freed of the substance per unit of time) was found to be 37.6 mL/min/kg, the half-life was 1.9 h and the Vd was 1.4 L/kg.
With `CCc1ccc([C@@H]2O[C@H](SC)[C@@H](O)[C@H](O)[C@H]2O)cc1Cc1ccc(OC2CCN(C(=O)C[C@H](N)Cc3cc(F)c(F)cc3F)CC2)cc1` [WXD003], the IC50 in data set [1] is 0.7 nM; in data set [2], 0.6 nM. In data set [3] (10 mg/kg orally), the “Oral DNAUC (AUCPO/Dose)” value came out at 2 nM · h/mpk. Besides, in data set [3] (rat, plasma), the clearance stood at 32.5 mL/min/kg. Further, in data set [3] (rat, plasma), the half-life is 2.3 h. The Vd in data set [3] (rat, plasma) was determined as 1.5 L/kg. In addition, the bioavailability (commonly dose-corrected exposure relative to a reference, in per cent) in data set [3] (rat, plasma, oral, 10 mg/kg orally vs 1 mg/kg intravenously, read-out: F % (oral bioavailability)) was determined as 0.2%. Besides, the highest level in data set [3] (rat, po, 10 mg/kg orally, plasma) (Cmax) was 16.5 nM. In addition, the “Blood glucose after 6 hours of fasting” value is 9.7 mmol/L in data set [4] (0.3 mg/kg orally once a day); 9.6 mmol/L in data set [4] (1 mg/kg orally once a day); 9.7 mmol/L in data set [4] (3 mg/kg orally once a day); 10.3*** mmol/L in data set [5] (after 4 weeks of administration, 3 mg/kg orally once a day, HFHS + Vehicle 13.7); 9.6**** mmol/L in data set [5] (after 7 weeks of administration, 6 mg/kg (week 4 to 7) orally once a day, HFHS + Vehicle 15.3). Besides, the “Blood glucose 1 hour after meal” value in data set [4] (0.3 mg/kg orally once a day) is 10.5 mmol/L; in data set [4] (1 mg/kg orally once a day), 10.2 mmol/L; in data set [4] (3 mg/kg orally once a day) it was 9.6* mmol/L. The animal weight result in data set [4] (after 3 weeks of administration, 0.3, 1, 3 mg/kg, FIG. 7 and FIG. 8) is given as “can significantly reduce animal weight in a dose-dependent manner”. Besides, the “Glycosylated hemoglobin after 6 hours of fasting” value is listed as 4.5*** % in data set [5] (after 4 weeks of administration, 3 mg/kg orally once a day, HFHS + Vehicle 4.9) and 4.4**** % in data set [5] (after 7 weeks of administration, 6 mg/kg (week 4 to 7) orally once a day, HFHS + Vehicle 5.2). Also, the “weight gain of animals” value in data set [5] (after 4 weeks of administration, FIG. 3) is “can effectively control the weight gain of animals”; in data set [5] (after 7 weeks of administration, FIG. 6), “can effectively control the weight gain of animals”. Besides, the “OGTT blood glucose level AUC0-2 hours” value in data set [6] is recorded as 624.2**** mmol/L × min.
Regarding `CS[C@H]1O[C@@H](c2ccc(C)c(Cc3ccc(OC4CCN(C(=O)C[C@H](N)Cc5cc(F)c(F)cc5F)CC4)cc3)c2)[C@H](O)[C@@H](O)[C@@H]1O` [WXD004], the half-maximal inhibitory concentration (IC50) in data set [1] and in data set [2] was 0.8 nM throughout.
As for `CCc1ccc([C@@H]2O[C@H](SC)[C@@H](O)[C@H](O)[C@H]2O)cc1Cc1ccc(OC2CCN(C(=O)C[C@@H](Cc3cc(F)c(F)cc3F)NC)CC2)cc1` [WXD005], the IC50 in data set [1] stood at 3.5 nM; in data set [2], 1.4 nM.
On the same counts, the results for `CS[C@H]1O[C@@H](c2ccc(F)c(Cc3ccc(OC4CCN(C(=O)C[C@H](N)Cc5cc(F)c(F)cc5F)CC4)cc3)c2)[C@H](O)[C@@H](O)[C@@H]1O` [WXD006] are 35 nM and 1.4 nM.
On the same counts, the results for `CS[C@H]1O[C@@H](c2cccc(Cc3ccc(OC4CCN(C(=O)C[C@H](N)Cc5cc(F)c(F)cc5F)CC4)cc3)c2)[C@H](O)[C@@H](O)[C@@H]1O` [WXD007] are 69 nM and 5.8 nM.
